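All cell lines were grown in 96-well plates and treated with compound for 48 hours. At the GI50, growth is halved. The concentration for full growth arrest is given as TGI.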

The record followed here is PubChem BioAssay (NCI).

Test systems include OVCAR-8 ovarian; HCT-116 colon; HT29 colon; SNB-75 CNS; KM12 colon; NCI-H522 lung; CCRF-CEM leukemia; OVCAR-5 ovarian; K-562 leukemia; OVCAR-4 ovarian.
What all share (test): NCI-60 cell line screen, 48 h

For the molecule `NNC(=S)Nc1cccc(Cl)c1`, the TGI in the assay with OVCAR-8 ovarian, in the assay with HCT-116 colon, with HT29 colon, with SNB-75 CNS, in the assay with KM12 colon and with NCI-H522 lung was > 100 µM throughout. Moreover, the TGI with CCRF-CEM leukemia, with OVCAR-5 ovarian, with K-562 leukemia and in the assay on OVCAR-4 ovarian was > 100 µM in each case.
In the case of `COC(=O)c1ccc2c(c1)c1c(C)c3ccncc3c(C)c1n2C`, the GI50 in the assay with OVCAR-8 ovarian is 0.121 µM; in the assay on HCT-116 colon, 0.0495 µM; in the assay with HT29 colon, 0.133 µM; in the assay with SNB-75 CNS it was 0.104 µM; in the assay with KM12 colon it was 0.262 µM; with NCI-H522 lung it was 0.538 µM. The GI50 with CCRF-CEM leukemia was 0.518 µM; in the assay with OVCAR-5 ovarian, 0.718 µM; in the assay with K-562 leukemia it was 0.2 µM; in the assay on OVCAR-4 ovarian, 0.396 µM. The TGI with OVCAR-8 ovarian is > 100 µM; in the assay with HCT-116 colon it was > 100 µM; with HT29 colon it was > 100 µM; with SNB-75 CNS, 15.9 µM; in the assay on KM12 colon, > 100 µM; in the assay on NCI-H522 lung it was 32 µM. For the same molecule, the TGI in the assay with CCRF-CEM leukemia is > 100 µM; in the assay on OVCAR-5 ovarian, > 100 µM; in the assay on K-562 leukemia, > 100 µM; in the assay with OVCAR-4 ovarian it was 30.8 µM.
For the molecule `COc1ccc2c(c1)N(CCO)C1=C(C(=O)OC1)C2c1ccccc1` (stereo not given), the GI50 in the assay with OVCAR-8 ovarian is 2.03 µM; with HCT-116 colon, 1.97 µM; with HT29 colon, 1.77 µM; with SNB-75 CNS, 1.01 µM; in the assay on KM12 colon, 1.48 µM; with NCI-H522 lung, 0.746 µM. For the same molecule, the GI50 in the assay with CCRF-CEM leukemia was 1.91 µM; in the assay on OVCAR-5 ovarian, 3.77 µM; in the assay with K-562 leukemia, 1.23 µM; in the assay with OVCAR-4 ovarian, 3.69 µM. Further, the TGI was > 50 µM with OVCAR-8 ovarian; 15.6 µM in the assay with HCT-116 colon; 5.73 µM with HT29 colon; > 50 µM in the assay with SNB-75 CNS; 12 µM with KM12 colon; 3.33 µM with NCI-H522 lung. Also, the TGI in the assay with CCRF-CEM leukemia, with OVCAR-5 ovarian, in the assay on K-562 leukemia and in the assay with OVCAR-4 ovarian was > 50 µM each time.
Regarding `COCOCC[C@@H]1CC=CC(NC(=O)OCc2ccccc2)C1/C=C/C(=O)CCC1OCCO1` (stereo not given in full), the TGI with OVCAR-8 ovarian is 39.3 µM; with HCT-116 colon, 33.1 µM; in the assay on HT29 colon, > 100 µM; in the assay on SNB-75 CNS it was > 90 µM; with KM12 colon it was 45.4 µM; with NCI-H522 lung, 34.7 µM. Also, the TGI in the assay on CCRF-CEM leukemia is 75.7 µM; in the assay with OVCAR-5 ovarian, > 100 µM; in the assay on K-562 leukemia it was > 100 µM; in the assay with OVCAR-4 ovarian it was > 74.4 µM.
As to `COc1cc(-c2ccc(NC(=O)NC3CC3)c(OC)c2)ccc1NC(=O)NC1CC1`, the GI50 in the assay on OVCAR-8 ovarian was 6.83 µM; in the assay on HCT-116 colon, 3.22 µM; in the assay with HT29 colon it was 5.81 µM; in the assay with SNB-75 CNS, 12.1 µM; in the assay on KM12 colon, 5.28 µM; in the assay on NCI-H522 lung, 4.94 µM. Moreover, the GI50 in the assay on CCRF-CEM leukemia is 4.34 µM; in the assay on OVCAR-5 ovarian, > 100 µM; in the assay on K-562 leukemia, 2.45 µM; with OVCAR-4 ovarian it was > 100 µM. The TGI is > 100 µM in the assay on OVCAR-8 ovarian; > 100 µM in the assay with HCT-116 colon; > 100 µM with HT29 colon; > 85.8 µM in the assay on SNB-75 CNS; > 100 µM with KM12 colon; > 62.5 µM in the assay on NCI-H522 lung. Besides, the TGI with CCRF-CEM leukemia, with OVCAR-5 ovarian, in the assay with K-562 leukemia and with OVCAR-4 ovarian was > 100 µM throughout.
`CC(O)CN1c2ccccc2Sc2ccc(Cl)cc21` (stereo not given): the TGI in the assay with OVCAR-8 ovarian, in the assay on HCT-116 colon, in the assay on HT29 colon, in the assay on SNB-75 CNS, with KM12 colon and in the assay on NCI-H522 lung was > 10 µM in each case. The TGI in the assay with CCRF-CEM leukemia, with OVCAR-5 ovarian, with K-562 leukemia and with OVCAR-4 ovarian was > 10 µM throughout.
On to `Cc1nc(Nc2ccccc2)sc1C(=O)CC(=O)C(=O)NC12CC3CC(CC(C3)C1)C2`, for which the TGI in the assay on OVCAR-8 ovarian, with HCT-116 colon, with HT29 colon, in the assay on SNB-75 CNS, with KM12 colon and with NCI-H522 lung was > 100 µM throughout. In addition, the TGI with CCRF-CEM leukemia, in the assay with OVCAR-5 ovarian, in the assay with K-562 leukemia and in the assay with OVCAR-4 ovarian was > 100 µM in each case.
Take `COC(=O)C(=O)C(C(=O)C(=O)Nc1ccc(C)cc1)c1nc2ccc(C(=O)c3ccccc3)cc2[nH]c1=O` (stereo not given): the TGI with OVCAR-8 ovarian, with HCT-116 colon, with HT29 colon, with SNB-75 CNS, in the assay with KM12 colon and in the assay on NCI-H522 lung was > 100 µM each time. For the same molecule, the TGI with CCRF-CEM leukemia, in the assay on OVCAR-5 ovarian, in the assay on K-562 leukemia and with OVCAR-4 ovarian was > 100 µM each time.
`CO[C@@H]1[C@H]2[C@@H](C)c3ccoc3C[C@@H]2[C@@]2(C)CC[C@H](OC(=O)c3ccccc3)[C@](C)(C(=O)O)[C@]2(O)[C@@H]1OC(=O)c1ccccc1`: the GI50 with OVCAR-8 ovarian was 14.3 µM; in the assay with HCT-116 colon, 8.89 µM; with HT29 colon, 13.5 µM; with SNB-75 CNS it was > 50 µM; in the assay on KM12 colon, 8.83 µM; in the assay with NCI-H522 lung, 34.9 µM. Besides, the GI50 was 22.7 µM with CCRF-CEM leukemia, 12 µM in the assay on OVCAR-5 ovarian, 15.4 µM in the assay with K-562 leukemia and 22.1 µM in the assay with OVCAR-4 ovarian. Moreover, the TGI in the assay on OVCAR-8 ovarian is > 50 µM; in the assay with HCT-116 colon it was 15.8 µM; with HT29 colon, > 50 µM; with SNB-75 CNS it was > 50 µM; with KM12 colon it was 33.5 µM; in the assay with NCI-H522 lung, > 50 µM. For the same molecule, the TGI with CCRF-CEM leukemia is > 50 µM; in the assay with OVCAR-5 ovarian it was 31.2 µM; with K-562 leukemia, > 50 µM; in the assay on OVCAR-4 ovarian it was > 50 µM.
Take `COc1cc(CC(C(=O)O)C(=O)O)c(OC)cc1CC(C(=O)O)C(=O)O`: the TGI in the assay with OVCAR-8 ovarian, with HCT-116 colon, in the assay with HT29 colon, with SNB-75 CNS, in the assay on KM12 colon and with NCI-H522 lung was > 100 µM in each case. In addition, the TGI in the assay on CCRF-CEM leukemia, in the assay with OVCAR-5 ovarian, in the assay on K-562 leukemia and in the assay with OVCAR-4 ovarian was > 100 µM each time.
